pIC50: −log10 of the molar value. ≈ marks a conversion by molar mass, not a printed value.
Experiments:
MCF7 = assay: Cytotoxicity against human MCF7 cells assessed as reduction in cell viability incubated for 72 hrs by MTT assay; assay type: functional, cell-based; conditions: MCF7, 72 h
HCT-116 [1] = assay: Cytotoxicity against human HCT-116 cells assessed as reduction in cell viability incubated for 72 hrs by MTT assay; assay type: functional, cell-based; conditions: HCT-116, 72 h
[2] = Cytotoxicity against mouse L929 cells assessed as reduction in cell viability incubated for 72 hrs by MTT assay; assay type: toxicity, cell-based
PC-3 = assay: Cytotoxicity against human PC-3 cells assessed as reduction in cell viability incubated for 72 hrs by MTT assay; assay type: functional, cell-based; conditions: PC-3, 72 h
SNB-19 = assay: Cytotoxicity against human SNB-19 cells assessed as reduction in cell viability incubated for 72 hrs by MTT assay; assay type: functional, cell-based; conditions: SNB-19, 72 h
B16-F10 = assay: Cytotoxicity against mouse B16-F10 cells assessed as reduction in cell viability incubated for 72 hrs by MTT assay; assay type: functional, cell-based; conditions: B16-F10, 72 h
[3] = system: Mycobacterium tuberculosis; assay: Antimycobacterial activity against Mycobacterium tuberculosis H37Rv ATCC 27294 assessed as bacterial growth inhibition incubated for 5 days by Alamar blue reagent based assay; assay type: functional; conditions: ATCC 27294, 120 h, time 5 day
Sporothrix schenckii [4] = assay: Antifungal activity against Sporothrix schenckii assessed as fungal growth inhibition incubated for 48 hrs by CLSI-based broth microdilution assay; assay type: functional
Sporothrix [5] = assay: Antifungal activity against Sporothrix brasiliensis assessed as fungal growth inhibition incubated for 48 hrs by CLSI-based broth microdilution assay; assay type: functional
Sporothrix schenckii [6] = assay: Antifungal activity against Sporothrix schenckii assessed as fungal growth inhibition incubated for 48 hrs in presence of itraconazole by CLSI-based broth microdilution assay; assay type: functional
Sporothrix [7] = assay: Antifungal activity against Sporothrix brasiliensis assessed as fungal growth inhibition incubated for 48 hrs in presence of itraconazole by CLSI-based broth microdilution assay; assay type: functional
[8] = system: Staphylococcus haemolyticus; assay: Antibacterial activity against Methicillin-resistant Staphylococcus haemolyticus clinical isolates assessed as bacterial growth inhibition incubated for 24 hrs by Mueller-Hinton broth based assay; assay type: functional
[9] = system: Staphylococcus epidermidis; assay: Antibacterial activity against Methicillin-resistant Staphylococcus epidermidis clinical isolates assessed as bacterial growth inhibition incubated for 24 hrs by Mueller-Hinton broth based assay; assay type: functional
Staphylococcus aureus [10] = assay: Antibacterial activity against Methicillin-resistant Staphylococcus aureus ATCC 33591 assessed as bacterial growth inhibition incubated for 24 hrs by Mueller-Hinton broth based assay; assay type: functional
Staphylococcus aureus [11] = assay: Antibacterial activity against Methicillin-resistant Staphylococcus aureus ATCC 29213 assessed as bacterial growth inhibition incubated for 24 hrs by Mueller-Hinton broth based assay; assay type: functional
[12] = Cytotoxicity against African green monkey BSC40 cells assessed as viable cells incubated for 24 hrs by Neutral red dye based spectrophotometer analysis; assay type: toxicity, cell-based; conditions: chlorocebus aethiops, bsc40, 24 h
[13] = Selectivity index, ratio of IC50 for human PBMC cells to IC50 for human HL-60 cells; assay type: toxicity; conditions: PBMC cells versus HL-60 cells, read-out: Ratio IC50
[14] = Clearance in human; assay type: ADME
[15] = Volume of distribution at steady state in human; assay type: ADME
[16] = Elimination half life in human at 1.5 mg/kg, iv; assay type: ADME, organism-based; conditions: in vivo, read-out: beta t1/2 (converted)
[17] = Oral bioavailability in human at 40 mg/kg; assay type: ADME, organism-based; conditions: in vivo
Trypanosoma cruzi = assay: Antitrypanosomal activity against bloodstream form of Trypanosoma cruzi Y trypomastigotes infected in albino mouse assessed as reduction in viable parasite in blood incubated for 24 hrs by Neubauer counting chamber method; assay type: functional, organism-based
Plasmodium berghei = assay: Antiplasmodial activity against Plasmodium berghei infected in Swiss mouse assessed as reduction in parasite growth at 200 mg/kg, sc administered for 7 days; assay type: functional; conditions: 168 h, time 7 day
HL-60 = assay: Cytotoxicity against human HL-60 cells assessed as reduction in cell viability incubated for 72 hrs by MTT assay; assay type: functional, cell-based; conditions: HL-60, 72 h
SF-295 = assay: Cytotoxicity against human SF-295 cells assessed as reduction in cell viability incubated for 72 hrs by MTT assay; assay type: functional, cell-based; conditions: SF-295, 72 h
NCI-H1975 = assay: Cytotoxicity against human NCI-H1975 cells assessed as reduction in cell viability incubated for 72 hrs by MTT assay; assay type: functional, cell-based; conditions: NCI-H1975, 72 h
HepG2 = assay: Cytotoxicity against human HepG2 cells assessed as reduction in cell viability incubated for 48 hrs by MTT assay; assay type: functional, cell-based; conditions: HepG2, 48 h
HCT-116 [18] = assay: Cytotoxicity against human HCT-116 cells assessed as reduction in cell viability incubated for 48 hrs by MTT assay; assay type: functional, cell-based; conditions: HCT-116, 48 h

## CC1(C)OC2=C(C(=O)C(=O)c3ccccc32)C1n1cc(C[Se]c2ccccc2)nn1 (configuration not stated)
MCF7
  pIC50: 5.97
HCT-116 [1]
  pIC50: 5.97
[2]
  IC50 at 72 h: 1.06 µM
PC-3
  pIC50: 5.97
SNB-19
  pIC50: 5.97
B16-F10
  pIC50: 5.97

## Cc1ccc(C2CC(c3ccccc3)C3=C(O2)c2ccccc2C(=O)C3=O)cc1 (configuration not stated)
[3]
  MIC: 3.12 mg/L (≈ 8.2 µM)

## CC1(c2ccccc2)CC2=C(O1)c1ccccc1C(=O)C2=O (configuration not stated)
Sporothrix schenckii [4]
  MIC: 2 µM (≈ 0.581 µg/mL)
Sporothrix [5]
  MIC: 2 µM (≈ 0.581 µg/mL)
Sporothrix schenckii [6]
  MIC: 0.06 µM
Sporothrix [7]
  MIC: 0.03 µM

## CC1(C)OC2=C(C(=O)C(=O)c3ccccc32)C1O (configuration not stated)
[8]
  MBC: > 512 mg/L
  MIC: 4 mg/L (≈ 16.4 µM)
[9]
  MBC: > 512 mg/L
  MIC: 4 mg/L (≈ 16.4 µM)
Staphylococcus aureus [10]
  MBC: > 512 mg/L
  MIC: 4 mg/L (≈ 16.4 µM)
Staphylococcus aureus [11]
  MBC: > 512 mg/L
  MIC: 4 mg/L (≈ 16.4 µM)
[12]
  MTC: 2 µg/mL

## CCC(C)n1ncn(-c2ccc(N3CCN(c4ccc(OCC5COC(Cn6cncn6)(c6ccc(Cl)cc6Cl)O5)cc4)CC3)cc2)c1=O (configuration not stated) [ITRACONAZOLE]
Sporothrix schenckii [4]
  MIC: 0.125 µM (≈ 0.0882 µg/mL)
Sporothrix [5]
  MIC: 0.125 µM (≈ 0.0882 µg/mL)

## CC1(C)CCC2=C(O1)c1ccccc1C(=O)C2=O [LAPACHONE]
[13]
  selectivity ratio: 827
[14]
  CL: 114 L/hr/m2
[15]
  Vdss: 490 L/m2
[16]
  half-life: 2.45 h
[17]
  bioavailability: 15.5%
Trypanosoma cruzi
  pIC50: 3.41

## CC1(C)Oc2c(c3nc4ccccc4nc3c3ccccc23)CC1S(=O)(=O)O (configuration not stated)
Plasmodium berghei
  inhibition in vivo at 200 mg/kg: 98%

## Cc1ccc(C2CCC3=C(O2)c2ccccc2C(=O)C3=O)cc1 (configuration not stated)
[3]
  MIC: 1.25 mg/L (≈ 4.11 µM)

## CC1(C)CCC2=C(O1)c1ccccc1/C(=N/O)C2=O
HCT-116 [1]
  pIC50: 5.58
HL-60
  pIC50: 5.42
SF-295
  pIC50: 5.46
NCI-H1975
  pIC50: 5.58

## COc1cc(OC)cc(C2C3=C(N=C4N=NNN42)c2ccccc2C(=O)C3=O)c1 (configuration not stated)
HepG2
  pIC50: 5.93
HCT-116 [18]
  pIC50: 6.66

## O=C1C(=O)c2ccccc2C2=C1CC(C[Se]c1cccs1)O2 (configuration not stated)
MCF7
  pIC50: 5.97
HCT-116 [1]
  pIC50: 5.97
[2]
  IC50 at 72 h: 1.06 µM
PC-3
  pIC50: 5.97
SNB-19
  pIC50: 5.97
B16-F10
  pIC50: 5.97
